Data set [1] relates to liaI expression (liaI::pMUTIN lacZ fusion, strain BFS2470; also liaH::pMUTIN, BFS2469). Put plainly: Disk-diffusion assay, blue ring on X-Gal plates. As to Disk-diffusion assay: key: −: no induction; +: induction of yvql expression. It counts as cell-based, Bacillus subtilis. The conditions noted are these: for disk-diffusion assay: qualitative screen of β-Galactosidase activity, blue ring at edge of zone of inhibition, LB plates with X-Gal, strain BFS2470; for induction of liaI / liaH expression, in words: strains BFS2469 and BFS2470. The text has this:
The pMUTIN-insertion results in a disruption of the targeted gene and generates a transcriptional fusion to lacZ thereby allowing detection of both antibiotic sensitivity (as defined by the zone of inhibition around the disk) and inducibility (by the formation of a blue ring at the edge of the zone of inhibition) (Cao et al., 2002, Mol Microbiol. 45: 1267-1276, the entire teaching of which is incorporated herein). The disruption of liaI and liaH had no effect on the sensitivity of the mutants to any of the antibiotics tested. […] Equivalent levels of induction were also observed with the PliaI-74-cat-lacZ fragment (in HB0950), albeit with lower fold-changes (See, Table 2). While the mode of action is different for these antibiotics, all four interfere with the lipid II cycle, essential for the biosynthesis of cell envelope polymers (Lazar et al., 2002, Curr. Opin. Chem. Biol. 6: 786-93).
PliaI induction assays: Screening for liaI induction was done by disk diffusion assay essentially as described (Cai, S. J., and M. Inouye, 2002, J Biol Chem 277:24155-61). B. subtilis strains were inoculated from a fresh overnight LB agar plate and grown to mid-log phase (OD600 ˜0.45) at 37 YC with shaking. 20 μl of the culture was mixed with 3 ml of 0.7% soft LB agar (containing 40 μg of X-Gal per plate) and poured onto the bottom agar. After cooling and drying of the plates (20 min at 37 YC), filter paper disks (6 mm diameter) carrying 5 μl of stock solution (antibiotics normally 100 mg/ml; lysozyme 10 mg/ml; tunicamycin, surfactants, uncouplers 5 mg/ml each; inhibitors of protein biosynthesis as given in the media and growth conditions section) were placed on top of the agar. The plates were incubated at 37 YC overnight. After 12-24 h incubation, the plates were scored for the appearance of a blue ring at or near the edge of the zone of growth inhibition produced by the diffusion of the antibiotics from the filter disk.
(Agar diffusion results depend on both activity and mobility in agar.)

Data set [2] has as its system liaI expression (pMUTIN-derived lacZ fusion, strain BFS2470). Put plainly: microbe, parasite or virus in culture. The conditions noted are these: for fold induction of liaI expression: text to FIG. 4: bacitracin 100 μg/mL, tunicamycin 50 μg/mL, vancomycin 2 μg/mL, 30 minutes, nisin, ramoplanin results not shown. The method, then:
Disc-diffusion assays were used to determine the spectrum of stimuli that induce the expression of liaIH. The B. subtilis strains BFS2469 and BFS2470 (Table 2), harboring pMUTIN-insertions in liaH and liaI respectively, were plated on a medium containing the indicator dye X-gal and overlaid with filter disks impregnated with various antibiotics that interfere with cell wall biosynthesis. Specifically, cultures of B. subtilis strain BFS2469 (liaH::pMUTIN) and BFS2470 (liaI::pMUTIN) were grown in LB medium to midlog phase, 2 mL for the un-induced control sample were harvested, and the remaining culture was induced with the three antibiotics for 30 minutes, before the cells of the induced sample were harvested. All samples were taken in duplicate from two independent cultures and the standard deviation is indicated by error bars.
Measurement of induction by β-galactosidase assays: Cells were inoculated from fresh overnight LB-plates and grown in LB-medium at 37° C. with aeration until they reached an O.D.600=0.45. 2 mL of cultures were harvested (un-induced control) and the cell pellets were shock frozen and kept at −70° C. The cultures were induced by addition of antibiotics to a final concentration of: bacitracin (100 μg/mL), tunicamycin (50 μg/mL) or vancomycin (2 μg/mL) and incubated for additional 30 min at 37° C. 2 mL of the cultures were harvested as described above (induced sample). The pellets were re-suspended in 1 mL of working buffer and assayed for β-galactosidase activity as described with normalization to cell density (Miller, 1972, the entire teaching of which is incorporated herein by reference).
For quantitative measurements of β-galactosidase activity, cells were inoculated from fresh overnight LB-plates and grown in LB medium at 37 YC with aeration until they reached an OD600 of 0.45. 2 ml of the culture was harvested (un-induced control) and the cell pellets were frozen and kept at −80 YC. The cultures were induced by addition of the compound to be tested to the final concentration as described in the individual figure legends and incubated for an additional 30 min at 37 YC. 2 ml of the cultures were harvested as described above. The pellets were re-suspended in 1 ml of working buffer (60 mM Na2HPO4, 40 mMNaH2PO4, 10 mM KCl, 1 mM MgSO4, 4 mM DTT) and assayed for β-galactosidase activity as described with normalization to cell density Kobayashi, K., et al., 2001, J Bacteriol 183:7365-7370). […] A sample was taken after 30 min for β-galactosidase assay and the turbidity of the remaining culture was measured for at least 5 hours to monitor the concentration-dependent effects of the antibiotics on cell growth.

Data set [3] has as its system B. subtilis strain BFS2470. Nature of the data set: Concentration-dependent induction/killing experiments. It counts as cell-based, Bacillus subtilis. Particulars: for lacZ-expression at higher concentration: FIG. 7a; for lacZ-expression at higher concentration / effect on cell growth / optical density: in words; for effect on cell growth / optical density: high concentrations, FIG. 7b; for antibiotic concentration at maximum induction of liaI: β-galactosidase assay after 30 min, 0.01 to 100 μg/ml tested. The protocol:
Concentration-dependent induction/killing experiments were performed for bacitracin, nisin, ramoplanin and vancomycin as shown in FIG. 7. In all four cases the induction of liaI occurred in a concentration-dependent manner (FIG. 7a), reaching a maximum at an antibiotic concentration of about 10 μg/ml (1 μg/mL for vancomycin). The time of antibiotic addition is indicated by an arrow. The antibiotic concentrations affecting the induction of PliaI according to the β3-galactosidase assay are indicated by white symbols. The corresponding concentrations are: bacitracin ([…]), nisin (50, 70 and 100 μg/ml), ramoplanin (20, 50 and 100 μg/mL) and vancomycin (5, 10, 50 and 100 μg/mL).
This finding correlates well with the bactericidal effects of these antibiotics as inferred from the dramatic decrease of optical density: there is little effect of bacitracin and vancomycin on cell growth during the first 30-60 min after addition even at high concentrations (FIG. 7b).
The cultures were incubated with aeration at 37° C.

Data set [4] relates to liaI expression in B. subtilis. The conditions noted are these: 10 min after vancomycin addition; cited from earlier work.

`CCCCCCCCCCCCCCCC[N+](C)(C)Cc1ccccc1.[Cl-]` [BDMHDA-Cl, Benzyldimethylhexadecylammonium chloride]: in data set [1], the disk-diffusion assay result was “+” and the “induction of liaI / liaH expression, in words” value was “moderately induced”. As for `CN[C@@H]1[C@H](O)[C@H](NC)[C@H]2O[C@@]3(O)C(=O)C[C@@H](C)O[C@H]3O[C@@H]2[C@H]1O` [spectinomycin], the disk-diffusion assay entry in data set [1] is “−”. On the same count and under the same terms, the result for `NC[C@H]1O[C@H](O[C@H]2[C@H](O)[C@@H](O[C@H]3O[C@H](CO)[C@@H](O)[C@H](N)[C@H]3O)[C@H](N)C[C@@H]2N)[C@H](O)[C@@H](O)[C@@H]1O` [kanamycin] reads “−”; that for Moenomycin, “−”. On the same count and under the same terms, the result for `CO[C@H]1/C=C/O[C@@]2(C)Oc3c(C)c(O)c4c(O)c(c(/C=N/N5CCN(C)CC5)c(O)c4c3C2=O)NC(=O)/C(C)=C\C=C\[C@H](C)[C@H](O)[C@@H](C)[C@@H](O)[C@@H](C)[C@H](OC(C)=O)[C@@H]1C` [rifampicin] reads “−”; that for `CCCCCCCCCCCCOS(=O)(=O)[O-].[Na+]` [SDS, sodium dodecylsulfate], “−”. For Tunicamycin, the disk-diffusion assay entry in data set [1] is “+”. For the same molecule, the “fold induction of liaI expression” value in data set [2] is reported as “three-fold”.

As to `[H]/N=C(/N)N[C@H]1[C@H](O)[C@@H](O)[C@H](O[C@@H]2O[C@@H](C)[C@](O)(C=O)[C@H]2O[C@@H]2O[C@@H](CO)[C@H](O)[C@@H](O)[C@@H]2NC)[C@@H](N/C(N)=N\[H])[C@@H]1O` [streptomycin], in data set [1], the disk-diffusion assay entry is on record as “−”. Regarding `N#CC(C#N)=NNc1cccc(Cl)c1` [CCCP], in data set [1], the disk-diffusion assay result is given as “−” and the “induction of liaI / liaH expression, in words” value is given as “neither elevated liaIH expression”. With `CCCCCCCCCCCC[N+](C)(C)Cc1ccccc1.[Br-]` [BDMDDA-Br, Benzyldimethyldodecylammonium bromide], the disk-diffusion assay result in data set [1] was “−”. On the same count and under the same terms, then `N[C@@H]1CONC1=O` [D-cycloserin], with “−”; and `CN(C)[C@@H]1C(O)=C(C(N)=O)C(=O)[C@@]2(O)C(O)=C3C(=O)c4c(O)cccc4[C@@](C)(O)[C@H]3C[C@@H]12` [tetracycline], with “−”; and Triton X100, with “−”.

`CCCCCCCCCCCCCCCC[N+](C)(C)C.[Br-]` [HDTMA-Br, Hexadecyltrimethylammonium]: the disk-diffusion assay result in data set [1] is recorded as “−”. Still for that read-out and setting: then `O=C(N[C@H](CO)[C@H](O)c1ccc([N+](=O)[O-])cc1)C(Cl)Cl` [Chloramphenicol], with “−”. For `O=[N+]([O-])c1ccc(O)c([N+](=O)[O-])c1` [DNP], in data set [1], the disk-diffusion assay entry is given as “−” and the “induction of liaI / liaH expression, in words” value is on record as “neither elevated liaIH expression”. On to Polymyxin B, for which the disk-diffusion assay result in data set [1] is reported as “−”.

As for Ramoplanin, in data set [3], the “lacZ-expression at higher concentration” value was “strong decrease down to un-induced levels”, the “effect on cell growth / optical density” value is given as “rapid cell lysis” and the “antibiotic concentration at maximum induction of liaI” value is reported as “about 10 μg/ml”. Further, in data set [1], the disk-diffusion assay result is “+” and the “induction of liaI / liaH expression, in words” value is recorded as “induced”. Besides, the “fold induction of liaI expression” value in data set [2] is listed as 420 fold.

On to `CC1(C)S[C@@H]2[C@H](NC(=O)[C@H](N)c3ccccc3)C(=O)N2[C@H]1C(=O)O` [Ampicillin], for which, in data set [1], the disk-diffusion assay result is given as “−”.

Turning to Lysozyme, in data set [1], the disk-diffusion assay entry is “−” and the “induction of liaI / liaH expression, in words” value is given as “ineffective as an inducer”.

`CC1(C)S[C@@H]2[C@H](NC(=O)Cc3ccccc3)C(=O)N2[C@H]1C(=O)O` [Penicillin G]: the disk-diffusion assay result in data set [1] was “−”.

On to `CN[C@H](CC(C)C)C(=O)N[C@H]1C(=O)N[C@@H](CC(N)=O)C(=O)N[C@H]2C(=O)N[C@H]3C(=O)N[C@H](C(=O)N[C@H](C(=O)O)c4cc(O)cc(O)c4-c4cc3ccc4O)[C@H](O)c3ccc(c(Cl)c3)Oc3cc2cc(c3O[C@@H]2O[C@H](CO)[C@@H](O)[C@H](O)[C@H]2O[C@H]2C[C@](C)(N)[C@H](O)[C@H](C)O2)Oc2ccc(cc2Cl)[C@H]1O` [Vancomycin], for which, in data set [3], the “lacZ-expression at higher concentration” value is recorded as “remained elevated”, the “effect on cell growth / optical density” value was “little effect” and the “antibiotic concentration at maximum induction of liaI” value is about 1 µg/mL. Besides, in data set [1], the disk-diffusion assay entry is “+” and the “induction of liaI / liaH expression, in words” value is recorded as “induced”. Further, in data set [4], the “increase in liaI expression level” value is “more than 100 fold”. Further, the fold induction at 2 µg/mL in data set [2] (Bacillus subtilis, 0.5 h, read-out: fold induction of liaI expression) was about 65.

(Values after patent publication US7309484B2, “Compositions and methods for screening antibacterial compounds” (priority 2003, dated 2007).)
